Test results taken from ChEMBL document CHEMBL2074157, “The modified dipeptide, enalapril, an angiotensin-converting enzyme inhibitor, is transported by the rat liver organic anion transport protein” (Hepatology, 1998).

T1: Solute carrier organic anion transporter family member 1A1 (Rattus norvegicus, UniProt P46720)
T1 sequence (P46720 whole entry): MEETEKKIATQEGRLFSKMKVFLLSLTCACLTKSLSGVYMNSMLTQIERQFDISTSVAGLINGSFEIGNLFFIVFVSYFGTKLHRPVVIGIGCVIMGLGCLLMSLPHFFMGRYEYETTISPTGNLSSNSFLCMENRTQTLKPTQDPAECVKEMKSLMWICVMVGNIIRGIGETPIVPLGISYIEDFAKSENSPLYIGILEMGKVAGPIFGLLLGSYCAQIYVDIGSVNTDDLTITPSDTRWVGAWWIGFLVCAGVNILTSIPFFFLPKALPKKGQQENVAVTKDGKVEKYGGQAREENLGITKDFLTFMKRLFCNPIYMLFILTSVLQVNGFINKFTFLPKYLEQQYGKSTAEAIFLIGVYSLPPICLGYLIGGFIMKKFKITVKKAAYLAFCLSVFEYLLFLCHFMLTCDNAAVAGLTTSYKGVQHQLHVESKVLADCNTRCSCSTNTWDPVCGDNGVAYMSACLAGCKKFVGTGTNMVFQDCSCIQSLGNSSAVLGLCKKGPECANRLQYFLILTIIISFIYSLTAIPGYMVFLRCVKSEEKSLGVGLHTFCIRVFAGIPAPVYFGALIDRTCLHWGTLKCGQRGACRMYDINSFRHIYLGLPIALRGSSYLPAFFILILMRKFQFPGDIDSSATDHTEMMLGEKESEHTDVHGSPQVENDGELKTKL

T2: Oatp1 (Solute carrier organic anion transporter family member 1A1) (Rattus norvegicus, UniProt P46720)
T2 sequence (P46720 whole entry): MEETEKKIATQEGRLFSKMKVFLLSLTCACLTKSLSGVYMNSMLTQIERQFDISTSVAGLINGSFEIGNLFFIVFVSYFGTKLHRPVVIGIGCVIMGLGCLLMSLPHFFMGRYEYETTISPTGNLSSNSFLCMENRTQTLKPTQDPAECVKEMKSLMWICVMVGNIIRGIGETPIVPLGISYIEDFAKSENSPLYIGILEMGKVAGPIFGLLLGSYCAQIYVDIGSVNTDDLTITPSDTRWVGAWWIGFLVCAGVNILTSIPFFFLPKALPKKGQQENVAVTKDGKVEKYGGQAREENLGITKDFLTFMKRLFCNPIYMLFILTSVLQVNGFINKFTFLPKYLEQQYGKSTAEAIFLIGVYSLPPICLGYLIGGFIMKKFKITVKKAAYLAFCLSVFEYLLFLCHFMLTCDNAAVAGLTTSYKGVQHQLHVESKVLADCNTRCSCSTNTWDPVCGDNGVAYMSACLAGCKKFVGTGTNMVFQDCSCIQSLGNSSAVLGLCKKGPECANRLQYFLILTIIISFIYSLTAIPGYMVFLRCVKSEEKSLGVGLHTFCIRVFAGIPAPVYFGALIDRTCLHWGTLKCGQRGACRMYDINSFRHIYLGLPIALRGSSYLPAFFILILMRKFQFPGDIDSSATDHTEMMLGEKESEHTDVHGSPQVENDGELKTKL


Key:
Assay type in all cases: functional, cell-based
[1] = molecular target: T1, Solute carrier organic anion transporter family member 1A1; assay: (§1) TP_TRANSPORTER: uptake in Oatp1-expressing HeLa cells; conditions: human
[2] = molecular target: T2, Oatp1 (Solute carrier organic anion transporter family member 1A1); assay: TP_TRANSPORTER: inhibition of Enalapril uptake (Enalapril: ? uM, E1S: 100 uM) in Oatp1-expressing HeLa cells; set-up: scale not given: the % may be the effect or the level left; conditions: human, probe Enalapril, read-out: Activity
[3] = molecular target: T1, Solute carrier organic anion transporter family member 1A1; assay: TP_TRANSPORTER: inhibition of Enalapril uptake in Oatp1-expressing HeLa cells
[4] = molecular target: T2, Oatp1 (Solute carrier organic anion transporter family member 1A1); assay: TP_TRANSPORTER: inhibition of Enalapril uptake (Enalapril: ? uM, BSP-SG: 200 uM) in Oatp1-expressing HeLa cells; set-up: scale not given: the % may be the effect or the level left; conditions: human, probe Enalapril, read-out: Activity
[5] = substrate: CCOC(=O)[C@H](CCc1ccccc1)N[C@@H](C)C(=O)N1CCC[C@H]1C(=O)O; assay: as §1

Activity [1] | Molecule | also measured
substrate [+] | C[C@]12CC[C@@H]3c4ccc(OS(=O)(=O)O)cc4CC[C@H]3[C@@H]1CCC2=O [ESTRONE SULFURIC ACID] | activity at 100 µM [2]: 20%
 | O=C1OC(c2ccc(O)c(S(=O)(=O)O)c2)(c2ccc(O)c(S(=O)(=O)O)c2)c2c(Br)c(Br)c(Br)c(Br)c21 [SULFOBROMOPHTHALEIN SODIUM] | Ki [3]: 1980 nM
substrate [+] | N[C@@H](CCC(=O)N[C@@H](CSc1c(Br)c(Br)c2c(c1Br)C(=O)OC2(c1ccc(O)c(S(=O)(=O)O)c1)c1ccc(O)c(S(=O)(=O)O)c1)C(=O)NCC(=O)O)C(=O)O | activity at 200 µM [4]: 78%
is not a substrate [-] | C[C@H](N[C@@H](CCc1ccccc1)C(=O)O)C(=O)N1CCC[C@H]1C(=O)O [ENALAPRILAT ANHYDROUS] | 
 | Solute carrier organic anion transporter family member 1A1 (Rattus norvegicus) (protein) MEETEKKIATQEGRLFSKMKVFLLSLTCACLTKSLSGVYMNSMLTQIERQFDISTSVAGLINGSFEIGNLFFIVFVSYFGTKLHRPVVIGIGCVIMGLGCLLMSLPHFFMGRYEYETTISPTGNLSSNSFLCMENRTQTLKPTQDPAECVKEMKSLMWICVMVGNIIRGIGETPIVPLGISYIEDFAKSENSPLYIGILEMGKVAGPIFGLLLGSYCAQIYVDIGSVNTDDLTITPSDTRWVGAWWIGFLVCAGVNILTSIPFFFLPKALPKKGQQENVAVTKDGKVEKYGGQAREENLGITKDFLTFMKRLFCNPIYMLFILTSVLQVNGFINKFTFLPKYLEQQYGKSTAEAIFLIGVYSLPPICLGYLIGGFIMKKFKITVKKAAYLAFCLSVFEYLLFLCHFMLTCDNAAVAGLTTSYKGVQHQLHVESKVLADCNTRCSCSTNTWDPVCGDNGVAYMSACLAGCKKFVGTGTNMVFQDCSCIQSLGNSSAVLGLCKKGPECANRLQYFLILTIIISFIYSLTAIPGYMVFLRCVKSEEKSLGVGLHTFCIRVFAGIPAPVYFGALIDRTCLHWGTLKCGQRGACRMYDINSFRHIYLGLPIALRGSSYLPAFFILILMRKFQFPGDIDSSATDHTEMMLGEKESEHTDVHGSPQVENDGELKTKL | Km [5]: 252 µM

Molecule | Activity [1] | also measured
Cc1nccc2c1[nH]c1cc(O)ccc12.O=S(=O)(O)O [HARMOL SULFATE] | is not a substrate [-] | 
